Source: patent publication US7452687B2 (Asahi Kasei Pharma Corporation, priority 2002, dated 2008)
Entries after “also recorded” stand apart in the source; their conditions may differ. Where two headings read alike, the source gives them in different places.

Key:
[1] = system: myo-inositol dehydrogenase; test: Study on buffers in reagents for myo-inositol quantitative determination (acceleration stability test of R-2 reagent); settings: 100 mM buffer pH 8.8; R-2 stored at 30° C. for 20 days, tested on 7th, 12th, 20th days
[2] = system: myo-inositol dehydrogenase derived from the strain F.sp.671; test: Relative activity assay (initial velocity with each coenzyme or substrate); format: biochemical, Flavobaterium sp. 671; settings: for Substrate specificity (enzyme activity for each substrate): coenzyme NAD, substrate 20 mM, pH 10.0, 37° C., initial velocity to myo-inositol as 100%; for Relative activity ratio for each coenzyme used: substrate 20 mM myo-inositol, coenzyme 2 mM, 100 mM glycine buffer pH 10.0, 37° C., NAD as 100%
Method: The relative activities were determined with the coenzyme changed according to the following method. Relative Activity Assay <Composition of Reaction Solution> • Buffer: 100 mM glycine buffer (pH 10.0) • Substrate: 20 mM myo-inositol (Sigma, Co., Ltd.) • Coenzyme: 2 mM (NAD, thio-NAD, NADP, thio NADP; Oriental Yeast Co., Ltd.) One ml of the above reaction solution is added to a quartz cell. Then, the quartz cell is placed in a spectrophotometer adjusted at a temperature of 37° C. The cell is incubated for 5 minutes or more and then 20 μl of an enzyme solution of about 1.0 U/ml is added thereto and mixed. The initial velocity is obtained from an absorbance change per minute at a wavelength peculiar to each reduced coenzyme. The initial velocity obtained with each coenzyme is compared with the initial velocity (100%) obtained using NAD as a coenzyme to provide the relative activity. According to the relative activity assay described above, the measurement was performed using the same concentration of D-chiro-inositol, D-mannose, D-fructose, D-galactose, mannitol, epi-inositol, or scyllo-inositol in place of the substrate in the reaction solution. […] The substrates used include D-mannose, D-fructose, D-galactose, mannitol, D-chiro-inositol (as above: Wako Pure Chemical Industries, Ltd.), myo-inositol, epi-inositol, and scyllo-inositol (as above: Sigma, Co., Ltd.). Following the relative activity assay described above, the measurement was performed using each of 100 mM tris buffer (pH 7.0-9.0) and 100 mM glycine buffer (pH 9.0-11.0) in place of 100 mM of pH 10.0 glycine buffer in the reaction solution. […] Using the relative activity assay described above, the concentration of myo-inositol and the concentrations of NAD and thio-NAD were changed to determine Km values respectively. Using the activity assay described above, the substrate concentration was changed to calculate the Km value.

[3] = system: myo-inositol dehydrogenase; settings: pH 8.8

O=C(O)CN(CCO)CCO [Bicine, N,N-Bis(hydroxyethyl)glycine]
Stability of sensitivity of R-2 reagent by buffer, in comparison to the standard solution [1]: stable sensitivity; also recorded: most stable sensitivity

O=C(CO)[C@@H](O)[C@H](O)[C@H](O)CO [Fructose, D-fructose]
Substrate specificity (enzyme activity for each substrate) [2]: less than 1%

O=C[C@H](O)[C@@H](O)[C@@H](O)[C@H](O)CO [Galactose, D-galactose]
Substrate specificity (enzyme activity for each substrate) [2]: less than 1%

OC[C@@H](O)[C@@H](O)[C@H](O)[C@H](O)CO [Mannitol, mannitol]
Substrate specificity (enzyme activity for each substrate) [2]: 0%

NC(=S)c1ccc[n+]([C@@H]2O[C@H](COP(=O)([O-])OP(=O)(O)OC[C@H]3O[C@@H](n4cnc5c(N)ncnc54)[C@H](O)[C@@H]3O)[C@@H](O)[C@H]2O)c1 [Thio-NAD, thio-nicotinamide adenine dinucleotide]
Km ([2]; coenzyme concentration changed, read-out: Km value for coenzyme): 4.5 ± 1 mM
Relative activity ratio for each coenzyme used [2]: 29%

NC(=S)c1ccc[n+]([C@@H]2O[C@H](COP(=O)([O-])OP(=O)(O)OC[C@H]3O[C@@H](n4cnc5c(N)ncnc54)[C@H](OP(=O)(O)O)[C@@H]3O)[C@@H](O)[C@H]2O)c1 [Thio-NADP, thio-nicotinamide adenine dinucleotide phosphate]
Relative activity ratio for each coenzyme used [2]: 0%

O=C(O)CNC(CO)(CO)CO [Tricine, N-Tris(hydroxymethyl)methylglycine]
Stability of sensitivity of R-2 reagent by buffer, in comparison to the standard solution [1]: stable sensitivity

OC1C(O)C(O)C(O)C(O)C1O [chiro-Inositol, D-chiro-inositol]
Substrate specificity (enzyme activity for each substrate) [2]: 18%

OC1C(O)C(O)C(O)C(O)C1O (stereo not drawn) [epi-Inositol, epi-inositol]
Substrate specificity (enzyme activity for each substrate) [2]: 2%

O[C@H]1[C@H](O)[C@@H](O)[C@H](O)[C@@H](O)[C@H]1O [myo-Inositol, myo-inositol]
Substrate specificity (enzyme activity for each substrate) [2]: 100%
Km ([2]; substrate concentration changed, read-out: Km value for substrate): 1.7 ± 0.2 mM

O[C@H]1[C@H](O)[C@@H](O)[C@H](O)[C@@H](O)[C@@H]1O [scyllo-Inositol, scyllo-inositol]
Substrate specificity (enzyme activity for each substrate) [2]: less than 1%

Tris(hydroxymethyl)aminomethane
Stability of sensitivity of R-2 reagent by buffer, in comparison to the standard solution [3]: stable sensitivity

nicotinamide adenine dinucleotide phosphate [NADP]
Relative activity ratio for each coenzyme used [2]: 8%
